System: Detoxification protein genes
Experiment: DNA chip mRNA expression in yeast, detoxification protein genes (Table 8)
Type: cell-based, Saccharomyces cerevisiae S288C
Outline: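 S. cerevisiae S288C grown at 25° C in YPD were exposed in log phase for two hours to one toxic chemical at a growth-inhibiting, non-lethal concentration; untreated cells served as control. Poly(A) mRNA was reverse-transcribed with Cy3/Cy5-dUTP and hybridized to a whole-genome yeast DNA chip at 65° C for over 12 hours; values are fluorescence ratios versus untreated.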

C=CC=O [(14), acrolein]
The level of expressed mRNA in the presence of chemical substance/The level of expressed mRNA in the absence of chemical substance (yeast gene YBL064C): 5.0 | The level of expressed mRNA in the presence of chemical substance/The level of expressed mRNA in the absence of chemical substance (yeast gene YBR008C): 4.1 | The level of expressed mRNA in the presence of chemical substance/The level of expressed mRNA in the absence of chemical substance (yeast gene YBR145W): 2.2 | The level of expressed mRNA in the presence of chemical substance/The level of expressed mRNA in the absence of chemical substance (yeast gene YBR244W): 3.7 | The level of expressed mRNA in the presence of chemical substance/The level of expressed mRNA in the absence of chemical substance (yeast gene YBR293W): 1.4 | The level of expressed mRNA in the presence of chemical substance/The level of expressed mRNA in the absence of chemical substance (yeast gene YCL035C): 2.5 | The level of expressed mRNA in the presence of chemical substance/The level of expressed mRNA in the absence of chemical substance (yeast gene YCL069W): 1.3 | The level of expressed mRNA in the presence of chemical substance/The level of expressed mRNA in the absence of chemical substance (yeast gene YCR083W): 2.4 | The level of expressed mRNA in the presence of chemical substance/The level of expressed mRNA in the absence of chemical substance (yeast gene YDL100C): 1.4 | The level of expressed mRNA in the presence of chemical substance/The level of expressed mRNA in the absence of chemical substance (yeast gene YDL168W): 1.6 | The level of expressed mRNA in the presence of chemical substance/The level of expressed mRNA in the absence of chemical substance (yeast gene YDR256C): 1.6 | The level of expressed mRNA in the presence of chemical substance/The level of expressed mRNA in the absence of chemical substance (yeast gene YDR453C): 3.8 | The level of expressed mRNA in the presence of chemical substance/The level of expressed mRNA in the absence of chemical substance (yeast gene YDR513W): 2.0 | The level of expressed mRNA in the presence of chemical substance/The level of expressed mRNA in the absence of chemical substance (yeast gene YDR538W): 0.9 | The level of expressed mRNA in the presence of chemical substance/The level of expressed mRNA in the absence of chemical substance (yeast gene YEL027W): 1.4 | The level of expressed mRNA in the presence of chemical substance/The level of expressed mRNA in the absence of chemical substance (yeast gene YEL065W): 0.4 | The level of expressed mRNA in the presence of chemical substance/The level of expressed mRNA in the absence of chemical substance (yeast gene YER185W): 1.6 | The level of expressed mRNA in the presence of chemical substance/The level of expressed mRNA in the absence of chemical substance (yeast gene YFL050C): 1.0 | The level of expressed mRNA in the presence of chemical substance/The level of expressed mRNA in the absence of chemical substance (yeast gene YGL013C): 0.8 | The level of expressed mRNA in the presence of chemical substance/The level of expressed mRNA in the absence of chemical substance (yeast gene YGL254W): 1.3 | The level of expressed mRNA in the presence of chemical substance/The level of expressed mRNA in the absence of chemical substance (yeast gene YGR088W): 1.3 | The level of expressed mRNA in the presence of chemical substance/The level of expressed mRNA in the absence of chemical substance (yeast gene YGR138C): 0.9 | The level of expressed mRNA in the presence of chemical substance/The level of expressed mRNA in the absence of chemical substance (yeast gene YGR197C): 1.5 | The level of expressed mRNA in the presence of chemical substance/The level of expressed mRNA in the absence of chemical substance (yeast gene YGR209C): 5.0 | The level of expressed mRNA in the presence of chemical substance/The level of expressed mRNA in the absence of chemical substance (yeast gene YGR224W): 0.9 | The level of expressed mRNA in the presence of chemical substance/The level of expressed mRNA in the absence of chemical substance (yeast gene YHL040C): 1.1 | The level of expressed mRNA in the presence of chemical substance/The level of expressed mRNA in the absence of chemical substance (yeast gene YHL047C): 0.5 | The level of expressed mRNA in the presence of chemical substance/The level of expressed mRNA in the absence of chemical substance (yeast gene YHR008C): 1.6 | The level of expressed mRNA in the presence of chemical substance/The level of expressed mRNA in the absence of chemical substance (yeast gene YHR048W): 1.7 | The level of expressed mRNA in the presence of chemical substance/The level of expressed mRNA in the absence of chemical substance (yeast gene YHR053C): 1.5 | The level of expressed mRNA in the presence of chemical substance/The level of expressed mRNA in the absence of chemical substance (yeast gene YHR055C): 1.5 | The level of expressed mRNA in the presence of chemical substance/The level of expressed mRNA in the absence of chemical substance (yeast gene YIR002C): 1.1 | The level of expressed mRNA in the presence of chemical substance/The level of expressed mRNA in the absence of chemical substance (yeast gene YIR038C): 2.5 | The level of expressed mRNA in the presence of chemical substance/The level of expressed mRNA in the absence of chemical substance (yeast gene YJL101C): 1.0 | The level of expressed mRNA in the presence of chemical substance/The level of expressed mRNA in the absence of chemical substance (yeast gene YJR104C): 2.0 | The level of expressed mRNA in the presence of chemical substance/The level of expressed mRNA in the absence of chemical substance (yeast gene YKL026C): 1.8 | The level of expressed mRNA in the presence of chemical substance/The level of expressed mRNA in the absence of chemical substance (yeast gene YKL064W): 1.1 | The level of expressed mRNA in the presence of chemical substance/The level of expressed mRNA in the absence of chemical substance (yeast gene YKR066C): 1.5 | The level of expressed mRNA in the presence of chemical substance/The level of expressed mRNA in the absence of chemical substance (yeast gene YKR105C): 1.2 | The level of expressed mRNA in the presence of chemical substance/The level of expressed mRNA in the absence of chemical substance (yeast gene YKR106W): 1.7 | The level of expressed mRNA in the presence of chemical substance/The level of expressed mRNA in the absence of chemical substance (yeast gene YLL028W): 0.7 | The level of expressed mRNA in the presence of chemical substance/The level of expressed mRNA in the absence of chemical substance (yeast gene YLL057C): 1.1 | The level of expressed mRNA in the presence of chemical substance/The level of expressed mRNA in the absence of chemical substance (yeast gene YLL060C): 10.6 | The level of expressed mRNA in the presence of chemical substance/The level of expressed mRNA in the absence of chemical substance (yeast gene YLR043C): 2.1 | The level of expressed mRNA in the presence of chemical substance/The level of expressed mRNA in the absence of chemical substance (yeast gene YLR046C): 1.3 | The level of expressed mRNA in the presence of chemical substance/The level of expressed mRNA in the absence of chemical substance (yeast gene YML028W): 2.0 | The level of expressed mRNA in the presence of chemical substance/The level of expressed mRNA in the absence of chemical substance (yeast gene YML116W): 2.0 | The level of expressed mRNA in the presence of chemical substance/The level of expressed mRNA in the absence of chemical substance (yeast gene YMR015C): 0.8 | The level of expressed mRNA in the presence of chemical substance/The level of expressed mRNA in the absence of chemical substance (yeast gene YMR038C): 1.1 | The level of expressed mRNA in the presence of chemical substance/The level of expressed mRNA in the absence of chemical substance (yeast gene YNL239W): 1.3 | The level of expressed mRNA in the presence of chemical substance/The level of expressed mRNA in the absence of chemical substance (yeast gene YNL241C): 1.1 | The level of expressed mRNA in the presence of chemical substance/The level of expressed mRNA in the absence of chemical substance (yeast gene YNL259C): 1.4 | The level of expressed mRNA in the presence of chemical substance/The level of expressed mRNA in the absence of chemical substance (yeast gene YOL158C): 1.0 | The level of expressed mRNA in the presence of chemical substance/The level of expressed mRNA in the absence of chemical substance (yeast gene YOR031W): 1.5 | The level of expressed mRNA in the presence of chemical substance/The level of expressed mRNA in the absence of chemical substance (yeast gene YOR153W): 0.3 | The level of expressed mRNA in the presence of chemical substance/The level of expressed mRNA in the absence of chemical substance (yeast gene YOR247W): 0.4 | The level of expressed mRNA in the presence of chemical substance/The level of expressed mRNA in the absence of chemical substance (yeast gene YOR251C): 1.1 | The level of expressed mRNA in the presence of chemical substance/The level of expressed mRNA in the absence of chemical substance (yeast gene YOR273C): 0.5 | The level of expressed mRNA in the presence of chemical substance/The level of expressed mRNA in the absence of chemical substance (yeast gene YPL163C): 0.6 | The level of expressed mRNA in the presence of chemical substance/The level of expressed mRNA in the absence of chemical substance (yeast gene YPR200C): 2.0

From patent US8192962B2, “Processes for detecting toxic substances” (Daikin Industries, Ltd., priority 2001, dated 2012)
